Reference: BigSolDB 2.1

CC(=O)N[C@H](C(=O)O)C(C)C
solubility (mole fraction)
Conditions	283.15 K	288.15 K	293.15 K	298.15 K	303.15 K	308.15 K	313.15 K	318.15 K	323.15 K	328.15 K
in 1,4-dioxane	–	0.0324	0.0363	0.0427	0.0495	0.06	0.0712	0.0805	0.0921	0.109
in 2-butanone	0.00606	0.00748	0.00907	0.0112	0.0141	0.0176	0.021	0.0245	0.0292	–
in acetone	0.0102	0.0133	0.0163	0.0196	0.0238	0.0284	0.0333	0.039	0.0437	–
in acetonitrile	0.00204	0.0026	0.00352	0.00464	0.0055	0.00668	0.00792	0.00909	0.0105	–
in dimethyl carbonate	0.00116	0.00139	0.00169	0.0021	0.00261	0.00331	0.00395	0.00489	0.00611	–
in ethyl acetate	0.00279	0.00342	0.00403	0.00487	0.006	0.00718	0.00847	0.01	0.0119	–
in isobutanol	0.0341	0.0396	0.0465	0.0566	0.0648	0.0777	0.0881	0.101	0.114	–
in isopropanol	0.0401	0.048	0.0558	0.0662	0.0782	0.091	0.104	0.12	0.134	–
in methyl acetate	0.00339	0.00393	0.00485	0.0058	0.00694	0.0082	0.00972	0.0112	0.0128	–
in n-butanol	0.0371	0.0428	0.0506	0.0595	0.0685	0.0786	0.0902	0.104	0.115	–
in n-propanol	0.0449	0.0512	0.06	0.0747	0.0876	0.111	0.13	0.151	0.171	–
in water	0.00557	0.00611	0.0066	0.00748	0.00872	0.01	0.0116	0.0137	0.0159	–
